In PMC10504751, “Chalcone/1,3,4-Oxadiazole/Benzimidazole hybrids as novel anti-proliferative agents inducing apoptosis and inhibiting EGFR & BRAFV^600E” (BMC Chemistry, 2023):

What was measured:
Test in all cases: NCI one-dose SRB anti-proliferative screen
Format in all cases: cell-based
PC-3 = settings: Homo sapiens; PC-3, Prostate Cancer; NCI one dose; read-out: Cell growth inhibition %
Outline: (§1)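 Read-out: sulforhodamine B protein stain measured colorimetrically after exposure of the cells to test compound at 10 µM. This line formed one member of a 60-line panel spanning lung, leukaemia, melanoma, colon, renal, CNS, prostate, breast and ovarian origins.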

HT29 = settings: Homo sapiens, HT-29; HT29, Colon cancer; NCI one dose; read-out: Cell growth inhibition %
Outline: as §1

UO-31 = settings: Homo sapiens; UO-31, Renal cancer; NCI one dose; read-out: Cell growth inhibition %
Outline: as §1

SK-MEL-2 = settings: Homo sapiens; SK-MEL-2, Melanoma; NCI one dose; read-out: Cell growth inhibition %
Outline: as §1

KM12 = settings: Homo sapiens; KM12, Colon cancer; NCI one dose; read-out: Cell growth inhibition %
Outline: as §1

BT-549 = settings: Homo sapiens; BT-549, Breast cancer; NCI one dose; read-out: Cell growth inhibition %
Outline: as §1

RPMI-8226 = settings: Homo sapiens; RPMI-8226, Leukemia; NCI one dose; read-out: Cell growth inhibition %
Outline: as §1

HL-60(TB) = settings: Homo sapiens; HL-60(TB), Leukemia; NCI one dose; read-out: Cell growth inhibition %
Outline: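 Activity reflects a single-point exposure at 10 µM, with cell mass determined by a sulforhodamine B dye assay.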

LOX IMVI = settings: Homo sapiens; for activity at 10 µM: LOX IMVI (Melanoma), 10 µM one dose, read-out: Growth Percent; for inhibition at 10 µM: Melanoma, NCI one dose, read-out: Cell growth inhibition %
Outline: as §1

MDA-MB-468 = settings: Homo sapiens; MDA-MB-468, Breast cancer; NCI one dose; read-out: Cell growth inhibition %
Outline: as §1

MDA-MB-231/ATCC = settings: Homo sapiens; MDA-MB-231/ATCC, Breast cancer; NCI one dose; read-out: Cell growth inhibition %
Outline: as §1

ACHN = settings: Homo sapiens; ACHN, Renal cancer; NCI one dose; read-out: Cell growth inhibition %
Outline: as §1

OVCAR-5 = settings: Homo sapiens; OVCAR-5, Ovarian Cancer; NCI one dose; read-out: Cell growth inhibition %
Outline: as §1

IGROV1 = settings: Homo sapiens, IGROV-1; IGROV1, Ovarian Cancer; NCI one dose; read-out: Cell growth inhibition %
Outline: as §1

786-0 = settings: Homo sapiens; 786-0, Renal cancer; NCI one dose; read-out: Cell growth inhibition %
Outline: as §1

CAKI-1 = settings: Homo sapiens; CAKI-1, Renal cancer; NCI one dose; read-out: Cell growth inhibition %
Outline: as §1

SR = settings: Homo sapiens; SR, Leukemia; NCI one dose; read-out: Cell growth inhibition %
Outline: as §1

A498 = settings: Homo sapiens; A498, Renal cancer; NCI one dose; read-out: Cell growth inhibition %
Outline: as §1

DU-145 = settings: Homo sapiens; DU-145, Prostate Cancer; NCI one dose; read-out: Cell growth inhibition %
Outline: as §1

SF-539 = settings: Homo sapiens; SF-539, CNS Cancer; NCI one dose; read-out: Cell growth inhibition %
Outline: as §1

NCI-H460 = settings: Homo sapiens; NCI-H460, Non-Small Cell Lung Cancer; NCI one dose; read-out: Cell growth inhibition %
Outline: as §1

SF-268 = settings: Homo sapiens; SF-268, CNS Cancer; NCI one dose; read-out: Cell growth inhibition %
Outline: as §1

HOP-92 = settings: Homo sapiens; HOP-92, Non-Small Cell Lung Cancer; NCI one dose; read-out: Cell growth inhibition %
Outline: as §1

SK-MEL-28 = settings: Homo sapiens; SK-MEL-28, Melanoma; NCI one dose; read-out: Cell growth inhibition %
Outline: as §1

NCI/ADR-RES = settings: Homo sapiens; NCI/ADR-RES, Ovarian Cancer; NCI one dose; read-out: Cell growth inhibition %
Outline: as §1

MCF7 = settings: Homo sapiens; MCF7, Breast cancer; NCI one dose; read-out: Cell growth inhibition %
Outline: as §1

HS 578T = settings: Homo sapiens; HS 578T, Breast cancer; NCI one dose; read-out: Cell growth inhibition %
Outline: as §1

OVCAR-3 = settings: Homo sapiens; OVCAR-3, Ovarian Cancer; NCI one dose; read-out: Cell growth inhibition %
Outline: as §1

OVCAR-8 = settings: Homo sapiens; OVCAR-8, Ovarian Cancer; NCI one dose; read-out: Cell growth inhibition %
Outline: as §1

TK-10 = settings: Homo sapiens; TK-10, Renal cancer; NCI one dose; read-out: Cell growth inhibition %
Outline: as §1

MDA-MB-435 = settings: Homo sapiens; MDA-MB-435, Melanoma; NCI one dose; read-out: Cell growth inhibition %
Outline: as §1

SW-620 = settings: Homo sapiens; SW-620, Colon cancer; NCI one dose; read-out: Cell growth inhibition %
Outline: as §1

| SMILES | inhibition at 10 µM (PC-3) | inhibition at 10 µM (HT29) | inhibition at 10 µM (UO-31) | inhibition at 10 µM (SK-MEL-2) | inhibition at 10 µM (KM12) | inhibition at 10 µM (BT-549) | inhibition at 10 µM (RPMI-8226) | inhibition at 10 µM (HL-60(TB)) | inhibition at 10 µM (LOX IMVI) | inhibition at 10 µM (MDA-MB-468) | inhibition at 10 µM (MDA-MB-231/ATCC) | inhibition at 10 µM (ACHN) | inhibition at 10 µM (OVCAR-5) | inhibition at 10 µM (IGROV1) | inhibition at 10 µM (786-0) | inhibition at 10 µM (CAKI-1) | inhibition at 10 µM (SR) | inhibition at 10 µM (A498) | inhibition at 10 µM (DU-145) | inhibition at 10 µM (SF-539) | also measured |
| --- | --- | --- | --- | --- | --- | --- | --- | --- | --- | --- | --- | --- | --- | --- | --- | --- | --- | --- | --- | --- | --- |
| COc1ccc(-c2nc3cc(-c4nnc(SCC(=O)Nc5ccc(C(=O)/C=C/c6ccccc6)cc5)o4)ccc3[nH]2)cc1 [Compound 7k, 2-{5-[2-(4-Methoxyphenyl)-1 H-benzo[d]imidazol-5-yl]-1,3,4-oxadiazol-2-ylthio}-N-{4-[(E)-3-phenylacryloyl]phenyl}acetamide] | 22.4% | 14.1% | 33.8% | 0% | 15.6% | 38.1% | 86.7% | 28.7% | 85.1% | 19.5% | 22.5% | 7.59% | 0% | 2.63% | 41.2% | 14.1% | 51.6% | 19.9% | 9.04% | 27.5% | activity at 10 µM (LOX IMVI): 14.9%; inhibition at 10 µM (NCI-H460): 6.61%; inhibition at 10 µM (SF-268): 17.1%; inhibition at 10 µM (HOP-92): 20.3%; inhibition at 10 µM (SK-MEL-28): 11.4%; inhibition at 10 µM (NCI/ADR-RES): 10.3%; inhibition at 10 µM (MCF7): 50.3%; inhibition at 10 µM (HS 578T): 7.69%; inhibition at 10 µM (OVCAR-3): 0%; inhibition at 10 µM (OVCAR-8): 28.2%; inhibition at 10 µM (TK-10): 0%; inhibition at 10 µM (MDA-MB-435): 33.6%; inhibition at 10 µM (SW-620): 0% |
| COc1ccc(-c2nc3cc(-c4nnc(SCC(=O)Nc5ccc(C(=O)/C=C/c6ccc(Cl)cc6)cc5)o4)ccc3[nH]2)cc1 [Compound 7l, 2-{5-[2-(4-Methoxyphenyl)-1 H-benzo[d]imidazol-5-yl]-1,3,4-oxadiazol-2-ylthio}-N-{4-[(E)-3-(4-chlorophenyl)acryloyl]phenyl}acetamide] | 5.06% | 0% | 14.7% | 0% | 0% | 1.84% | 20.1% | 5.86% | 130% | 1.89% | 5.19% | 2.31% | 0.55% | 12.8% | 0.91% | 2.8% | 31.8% | 15.7% | 0% | 12.9% | activity at 10 µM (LOX IMVI): -29.9%; inhibition at 10 µM (NCI-H460): 0%; inhibition at 10 µM (SF-268): 5.15%; inhibition at 10 µM (HOP-92): 5.04%; inhibition at 10 µM (SK-MEL-28): 0%; inhibition at 10 µM (NCI/ADR-RES): 0%; inhibition at 10 µM (MCF7): 22%; inhibition at 10 µM (HS 578T): 9.4%; inhibition at 10 µM (OVCAR-3): 0%; inhibition at 10 µM (OVCAR-8): 0%; inhibition at 10 µM (TK-10): 0%; inhibition at 10 µM (MDA-MB-435): 0.7%; inhibition at 10 µM (SW-620): 3.03% |
| COc1ccc(/C=C/C(=O)c2ccc(NC(=O)CSc3nnc(-c4ccc5[nH]c(-c6ccc(OC)cc6)nc5c4)o3)cc2)cc1 [Compound 7m, 2-{5-[2-(4-Methoxyphenyl)-1 H-benzo[d]imidazol-5-yl]-1,3,4-oxadiazol-2-ylthio}-N-{4-[(E)-3-(4-methoxyphenyl)acryloyl]phenyl}acetamide] | 14.7% | 0% | 7.02% | 0% | 3.51% | 14.3% | 44.1% | 21.9% | 81.5% | 0% | 9.52% | 0% | 0% | 3.99% | 0% | 6.15% | 40.5% | 0% | 0% | 18% | inhibition at 10 µM (NCI-H460): 1.44%; inhibition at 10 µM (SF-268): 5.02%; inhibition at 10 µM (HOP-92): 18.9%; inhibition at 10 µM (SK-MEL-28): 2%; inhibition at 10 µM (NCI/ADR-RES): 0%; inhibition at 10 µM (MCF7): 17.2%; inhibition at 10 µM (HS 578T): 21.1%; inhibition at 10 µM (OVCAR-3): 3.65%; inhibition at 10 µM (OVCAR-8): 23.4%; inhibition at 10 µM (TK-10): 0%; inhibition at 10 µM (MDA-MB-435): 7.11%; inhibition at 10 µM (SW-620): 2% |
